Values quoted from earlier work in PMC7062412 (Drug Design, Development and Therapy, 2020).

How the values were obtained:
ET-1 = conditions: overall animals, isolated organs, cells and subcells

half-life in the body: 30 to 60 min
SMILES: O=C(O)/C=C/c1ccc(O)c(O)c1 [Caffeic Acid, caffeic acid]
antagonistic biological effect on ET-1 (ET-1): had an antagonistic biological effect on ET-1
